# Source: patent US8192962B2, “Processes for detecting toxic substances” (Daikin Industries, Ltd., priority 2001, dated 2012)
# Tested on: Metabolism protein genes
# Experiment: DNA chip mRNA expression in yeast, metabolism protein genes (Table 7)
# Format: cell-based, Saccharomyces cerevisiae S288C
# Protocol: Yeast (Saccharomyces cerevisiae S288C (α SUC2mal mel gap2 CUP1)) were incubated at 25° C. on YPD medium (yeast extract 1%, polypepton 2%, glucose 2%). One of toxic chemical substances was added to the cells at logarithmic growth phase, and the cells were further incubated for two hours. Cells were cultured without any chemical substance in the same condition, and were used as control. Concentrations of the chemical substances were defined to inhibit the growth of the yeast but not lead to death.
# After completion of the incubation, the culture was centrifuged to collect the cells. To the cells, sodium acetate buffer (50 mM sodium acetate, 10 mM EDTA, 1% SDS) was added, and the mixture was shaken at 65° C. for five minutes, followed by returning to room temperature, and obtaining the supernatant, of which the procedures were repeated two times. To the supernatant, ½ amount of a solution of phenol/chloroform was added, and the mixture was centrifuged to give a supernatant, which was added with an equal amount of chloroform, and the mixture was centrifuged to give a supernatant. To the supernatant, an equal amount of isopropanol containing 0.3 M sodium acetate was added, and the mixture was allowed to stand at room temperature for 30 minutes, after which the mixture was centrifuged to give a sediment of the whole RNAs. Seventy % ethanol was added to the sediment, and the mixture was again centrifuged to give a sediment, which was then dried and dissolved in water. mRNA was isolated from the whole RNAs as followings. In view of the fact that a poly A chain is attached to the 3′ terminus of mRNA, a polynucleotide having a poly T structure which was immobilized on the surface of latex beads was used to trap the mRNA, and then the mRNA was washed and eluted with spine column (Oligotex-dT30<Super>mRNA Purification Kit, Takara). Reverse transcription of the mRNA was conducted with a reverse transcriptase (Super Script II Reverse Transcriptase; catalogue No. 18064-014, GibcoBRL) using fluorescence-labeled nucleotides to give cDNAs that were introduced with Cy3-dUTP or Cy5-dUTP during the reverse transcription.
# The labeled cDNAs were dissolved in TE buffer (10mM Tris-HCl/1 mM EDTA, pH8.0), and the solution was dropped on the DNA chip containing the whole genes of yeast (DNA Chip Research Inc. Japan) so that the cDNAs were hybridized on the DNA chip at 65° C. for over 12 hours. The fluoresces intensity of the DNA chip was read with a scanner, and the ratio relative to the fluorescence intensity resulting from the absence of chemical substance was estimated as the following, which is shown in Tables 1 to 9: […]
compound,measurement,setting,value
"[Cl][Cd][Cl] [(2), CdCl2]",The level of expressed mRNA in the presence of chemical substance/The level of expressed mRNA in the absence of chemical substance,yeast gene YJR155W,3.7
same,The level of expressed mRNA in the presence of chemical substance/The level of expressed mRNA in the absence of chemical substance,yeast gene YKL035W,0.9
same,level of expressed mRNA in the presence/in the absence of chemical substance,yeast gene YKL060C,0.8
same,The level of expressed mRNA in the presence of chemical substance/The level of expressed mRNA in the absence of chemical substance,yeast gene YKL091C,1.3
same,The level of expressed mRNA in the presence of chemical substance/The level of expressed mRNA in the absence of chemical substance,yeast gene YKL104C,1.0
same,level of expressed mRNA in the presence/in the absence of chemical substance,yeast gene YKL148C,0.8
same,The level of expressed mRNA in the presence of chemical substance/The level of expressed mRNA in the absence of chemical substance,yeast gene YKL152C,1.3
same,level of expressed mRNA in the presence/in the absence of chemical substance,yeast gene YKL157W,1.0
same,The level of expressed mRNA in the presence of chemical substance/The level of expressed mRNA in the absence of chemical substance,yeast gene YKL213C,0.8
same,The level of expressed mRNA in the presence of chemical substance/The level of expressed mRNA in the absence of chemical substance,yeast gene YKL215C,1.1
same,level of expressed mRNA in the presence/in the absence of chemical substance,yeast gene YKR034W,1.5
same,The level of expressed mRNA in the presence of chemical substance/The level of expressed mRNA in the absence of chemical substance,yeast gene YLL058W,3.8
same,level of expressed mRNA in the presence/in the absence of chemical substance,yeast gene YLR006C,0.7
same,level of expressed mRNA in the presence/in the absence of chemical substance,yeast gene YLR044C,0.6
same,level of expressed mRNA in the presence/in the absence of chemical substance,yeast gene YLR056W,0.6
same,level of expressed mRNA in the presence/in the absence of chemical substance,yeast gene YLR058C,0.8
same,level of expressed mRNA in the presence/in the absence of chemical substance,yeast gene YLR081W,0.8
same,level of expressed mRNA in the presence/in the absence of chemical substance,yeast gene YLR089C,1.2
same,The level of expressed mRNA in the presence of chemical substance/The level of expressed mRNA in the absence of chemical substance,yeast gene YLR180W,1.4
same,The level of expressed mRNA in the presence of chemical substance/The level of expressed mRNA in the absence of chemical substance,yeast gene YLR273C,1.0
same,level of expressed mRNA in the presence/in the absence of chemical substance,yeast gene YLR284C,1.0
same,The level of expressed mRNA in the presence of chemical substance/The level of expressed mRNA in the absence of chemical substance,yeast gene YLR299W,1.9
same,The level of expressed mRNA in the presence of chemical substance/The level of expressed mRNA in the absence of chemical substance,yeast gene YLR300W,0.8
same,level of expressed mRNA in the presence/in the absence of chemical substance,yeast gene YLR304C,0.6
same,The level of expressed mRNA in the presence of chemical substance/The level of expressed mRNA in the absence of chemical substance,yeast gene YLR307W,0.4
same,The level of expressed mRNA in the presence of chemical substance/The level of expressed mRNA in the absence of chemical substance,yeast gene YLR348C,4.5
same,level of expressed mRNA in the presence/in the absence of chemical substance,yeast gene YLR354C,2.5
same,level of expressed mRNA in the presence/in the absence of chemical substance,yeast gene YLR372W,0.3
same,level of expressed mRNA in the presence/in the absence of chemical substance,yeast gene YML022W,0.6
same,The level of expressed mRNA in the presence of chemical substance/The level of expressed mRNA in the absence of chemical substance,yeast gene YML054C,1.8
same,The level of expressed mRNA in the presence of chemical substance/The level of expressed mRNA in the absence of chemical substance,yeast gene YML070W,1.7
same,The level of expressed mRNA in the presence of chemical substance/The level of expressed mRNA in the absence of chemical substance,yeast gene YML100W,2.7
same,The level of expressed mRNA in the presence of chemical substance/The level of expressed mRNA in the absence of chemical substance,yeast gene YMR008C,0.9
same,level of expressed mRNA in the presence/in the absence of chemical substance,yeast gene YMR011W,1.0
same,level of expressed mRNA in the presence/in the absence of chemical substance,yeast gene YMR015C,0.7
same,The level of expressed mRNA in the presence of chemical substance/The level of expressed mRNA in the absence of chemical substance,yeast gene YMR020W,1.0
same,level of expressed mRNA in the presence/in the absence of chemical substance,yeast gene YMR083W,1.7
same,The level of expressed mRNA in the presence of chemical substance/The level of expressed mRNA in the absence of chemical substance,yeast gene YMR105C,3.0
same,The level of expressed mRNA in the presence of chemical substance/The level of expressed mRNA in the absence of chemical substance,yeast gene YMR189W,0.8
same,level of expressed mRNA in the presence/in the absence of chemical substance,yeast gene YMR205C,0.7
same,level of expressed mRNA in the presence/in the absence of chemical substance,yeast gene YMR261C,1.6
same,The level of expressed mRNA in the presence of chemical substance/The level of expressed mRNA in the absence of chemical substance,yeast gene YMR271C,1.6
same,The level of expressed mRNA in the presence of chemical substance/The level of expressed mRNA in the absence of chemical substance,yeast gene YMR296C,0.7
same,level of expressed mRNA in the presence/in the absence of chemical substance,yeast gene YMR323W,1.1
same,The level of expressed mRNA in the presence of chemical substance/The level of expressed mRNA in the absence of chemical substance,yeast gene YNL012W,1.3
same,level of expressed mRNA in the presence/in the absence of chemical substance,yeast gene YNL025C,1.4
same,The level of expressed mRNA in the presence of chemical substance/The level of expressed mRNA in the absence of chemical substance,yeast gene YNL045W,1.3
same,The level of expressed mRNA in the presence of chemical substance/The level of expressed mRNA in the absence of chemical substance,yeast gene YNL104C,1.3
same,The level of expressed mRNA in the presence of chemical substance/The level of expressed mRNA in the absence of chemical substance,yeast gene YNL106C,1.4
same,The level of expressed mRNA in the presence of chemical substance/The level of expressed mRNA in the absence of chemical substance,yeast gene YNL169C,1.4
same,level of expressed mRNA in the presence/in the absence of chemical substance,yeast gene YNL192W,1.2
same,The level of expressed mRNA in the presence of chemical substance/The level of expressed mRNA in the absence of chemical substance,yeast gene YNL231C,0.8
same,The level of expressed mRNA in the presence of chemical substance/The level of expressed mRNA in the absence of chemical substance,yeast gene YNL322C,0.9
same,The level of expressed mRNA in the presence of chemical substance/The level of expressed mRNA in the absence of chemical substance,yeast gene YNL331C,3.6
same,The level of expressed mRNA in the presence of chemical substance/The level of expressed mRNA in the absence of chemical substance,yeast gene YNL332W,1.5
same,The level of expressed mRNA in the presence of chemical substance/The level of expressed mRNA in the absence of chemical substance,yeast gene YNR019W,1.3
same,The level of expressed mRNA in the presence of chemical substance/The level of expressed mRNA in the absence of chemical substance,yeast gene YNR033W,0.8
same,The level of expressed mRNA in the presence of chemical substance/The level of expressed mRNA in the absence of chemical substance,yeast gene YNR059W,0.9
same,The level of expressed mRNA in the presence of chemical substance/The level of expressed mRNA in the absence of chemical substance,yeast gene YOL058W,0.5
same,level of expressed mRNA in the presence/in the absence of chemical substance,yeast gene YOL086C,0.5
same,level of expressed mRNA in the presence/in the absence of chemical substance,yeast gene YOL108C,1.5
same,level of expressed mRNA in the presence/in the absence of chemical substance,yeast gene YOL116W,1.0
same,The level of expressed mRNA in the presence of chemical substance/The level of expressed mRNA in the absence of chemical substance,yeast gene YOL126C,0.8
same,The level of expressed mRNA in the presence of chemical substance/The level of expressed mRNA in the absence of chemical substance,yeast gene YOL153C,1.2
same,level of expressed mRNA in the presence/in the absence of chemical substance,yeast gene YOL156W,0.7
same,The level of expressed mRNA in the presence of chemical substance/The level of expressed mRNA in the absence of chemical substance,yeast gene YOL165C,4.5
same,level of expressed mRNA in the presence/in the absence of chemical substance,yeast gene YOR002W,1.1
same,level of expressed mRNA in the presence/in the absence of chemical substance,yeast gene YOR085W,0.8
same,The level of expressed mRNA in the presence of chemical substance/The level of expressed mRNA in the absence of chemical substance,yeast gene YOR099W,1.3
same,level of expressed mRNA in the presence/in the absence of chemical substance,yeast gene YOR103C,0.8
same,level of expressed mRNA in the presence/in the absence of chemical substance,yeast gene YOR108W,0.9
same,level of expressed mRNA in the presence/in the absence of chemical substance,yeast gene YOR128C,0.7
same,The level of expressed mRNA in the presence of chemical substance/The level of expressed mRNA in the absence of chemical substance,yeast gene YOR130C,1.7
same,level of expressed mRNA in the presence/in the absence of chemical substance,yeast gene YOR142W,1.2
same,level of expressed mRNA in the presence/in the absence of chemical substance,yeast gene YOR176W,2.6
same,level of expressed mRNA in the presence/in the absence of chemical substance,yeast gene YOR178C,1.3
same,level of expressed mRNA in the presence/in the absence of chemical substance,yeast gene YOR251C,1.0
same,The level of expressed mRNA in the presence of chemical substance/The level of expressed mRNA in the absence of chemical substance,yeast gene YOR336W,1.4
same,The level of expressed mRNA in the presence of chemical substance/The level of expressed mRNA in the absence of chemical substance,yeast gene YOR347C,0.9
same,level of expressed mRNA in the presence/in the absence of chemical substance,yeast gene YOR348C,0.7
same,The level of expressed mRNA in the presence of chemical substance/The level of expressed mRNA in the absence of chemical substance,yeast gene YPL017C,2.5
same,level of expressed mRNA in the presence/in the absence of chemical substance,yeast gene YPL028W,0.9
same,level of expressed mRNA in the presence/in the absence of chemical substance,yeast gene YPL057C,1.1
same,level of expressed mRNA in the presence/in the absence of chemical substance,yeast gene YPL135W,1.2
same,level of expressed mRNA in the presence/in the absence of chemical substance,yeast gene YPL148C,0.8
same,The level of expressed mRNA in the presence of chemical substance/The level of expressed mRNA in the absence of chemical substance,yeast gene YPR026W,1.2
same,level of expressed mRNA in the presence/in the absence of chemical substance,yeast gene YPR113W,0.8
same,level of expressed mRNA in the presence/in the absence of chemical substance,yeast gene YPR165W,0.7
same,The level of expressed mRNA in the presence of chemical substance/The level of expressed mRNA in the absence of chemical substance,yeast gene YPR167C,5.8
same,level of expressed mRNA in the presence/in the absence of chemical substance,yeast gene YPR183W,1.5
